Measurements from patent US20160257697A1, “THIOPHENE-SUBSTITUTED TETRACYCLIC COMPOUNDS AND METHODS OFUSE THEREOF FOR THE TREATMENT OF VIRAL DISEASES” (priority 2013, published 2016).
Read-outs that look alike come from different tables or passages of the source.

Legend:
HCV replicon 1A = assay: microbe, parasite or virus in culture; format: cell-based, Hepatitis C virus (HCV); conditions: Replicon Assay A
Protocol: (§1) To measure cell-based anti-HCV activity of compounds of the present invention, two complimentary assays were employed using various replicons. In the first assay (“Replicon Assay A”), replicon cells were seeded at 2000 cells/well in 384-well 384-well flat bottom tissue culture treated clear bottom plate (Corning 3707) in the presence of the test compound. […] The final concentration of DMSO was 0.5%. Fetal bovine serum was 5%, in the assay media. Cells were harvested on day 3 by removing media and washing the cells with a suitable wash buffer. The cells are lysed with the addition of 1× Qiagen lysis buffer (Cat #1062731). The replicon RNA level was measured using real time PCR (TaqMan® EZ RT-PCR, Applied Biosystems 403028) with the following primers and probes: […]
(§2) Cyclophilin RNA was used as endogenous control and was amplified in the same reaction as NS5B (multiplex PCR). The real-time RT-PCR reactions were run on ABI PRISM 7900HT Sequence Detection System using the following program: 50° C. for 2 minutes, 60° C. for 30 minutes, 95° C. for 5 minutes, 40 cycles of 94° C. for 20 sec, 55° C. for 1 minutes.
(§3) The amount of HCV replicon RNA per cell is quantified using a linear regression curve for a known nanogram (ng) amount of HCV replicon total RNA. This is established by plotting the Cycle Threshold values (Ct) from the Neo probe and primer set versus the log (ng) for each HCV replicon total RNA standard. The amount of HCV RNA for each replicon sample is calculated by taking the sample's Ct value, minus the line intercept, divided by the slope of the line. Similarly, the amount of Cyclophilin mRNA per cell is also quantified using a linear regression curve for a known nanogram (ng) amount of HCV replicon total RNA. Again, this is established by plotting the Cycle Threshold values (Ct) from the Cyclophilin probe and primer set versus the log (ng) for each HCV replicon total RNA standard.
(§4) Data for replicons 1A, 1AY93H and 2B were obtained using Replicon Assay A and data for replicons 1AQ30D and 1B were obtained using Replicon Assay B.

HCV replicon 2B = assay: microbe, parasite or virus in culture; format: cell-based, Hepatitis C virus (HCV); conditions: Replicon Assay A
Protocol: as §1, §2, §3, §4

[1] = Hepatitis C virus, read-out: 2B IC50, HCV replicon 2B
[2] = read-out: 2B IC50, HCV replicon 2B

| Compound | IC50 (HCV replicon 1A; replicon 1A) [pM] | IC50 (HCV replicon 2B; [2]) [nM] | other results |
| --- | --- | --- | --- |
| COC(=O)NC(C(=O)N1CCC[C@H]1c1ncc(-c2ccc3c(c2)cc2n3C(c3ccc(C4CC4)s3)Oc3cc(-c4cnc([C@@H]5CCCN5C(=O)[C@@H](NC(=O)OC)C(C)C)[nH]4)cc(F)c3-2)[nH]1)C1CCO[C@@H](C)C1 (single isomer, unassigned) [Compound 402] | 3.4 | – | IC50 (HCV replicon 2B; read-out: 2B IC50, replicon 2B): 0.0054 nM |
| COC(=O)NC(C(=O)N1CCC[C@H]1c1ncc(-c2ccc3c(c2)cc2n3C(c3ccc(CC(F)(F)F)s3)Oc3cc(-c4cnc([C@@H]5CCCN5C(=O)[C@@H](NC(=O)OC)C(C)C)[nH]4)cc(F)c3-2)[nH]1)C1CCOC(C)(C)C1 (single isomer, unassigned) [Compound 425] | – | – | IC50 (HCV replicon 2B; [1]): 0.011 nM |
| COC(=O)N[C@H](C(=O)N1CCC[C@H]1c1ncc(-c2cc(F)c3c(c2)OC(c2ccc(C4CCCCC4)s2)n2c-3cc3cc(-c4cnc([C@@H]5CCCN5C(=O)[C@@H](NC(=O)OC)C(C)C)[nH]4)ccc32)[nH]1)C(C)C (single isomer, unassigned) [Compound 528] | – | 8.81 | IC50 (HCV replicon 1A; Hepatitis C virus, HCV replicon 1A): 8.83 pM |
| COC(=O)NC(C(=O)N1[C@@H]2C[C@@H]2C[C@H]1c1ncc(-c2ccc3c(c2)cc2n3C(c3cc4ccccc4s3)Oc3cc(-c4cnc([C@@H]5CCCN5C(=O)[C@@H](NC(=O)OC)C(C)C)[nH]4)cc(F)c3-2)[nH]1)C1C[C@@H](C)O[C@@H](C)C1 (single isomer, unassigned) [Compound 646] | – | 0.173 | – |
| COC(=O)N[C@H](C(=O)N1CCC[C@H]1c1ncc(-c2cc(F)c3c(c2)OC(c2ccc(C4CC4(F)F)s2)n2c-3cc3cc(-c4cnc([C@@H]5CCCN5C(=O)[C@@H](NC(=O)OC)C(C)C)[nH]4)ccc32)[nH]1)C(C)C (single isomer, unassigned) [Compound 119] | – | – | IC50 (HCV replicon 2B; read-out: 2B IC50, replicon 2B): 0.073 nM |
| CCCc1ccc(C2Oc3cc(-c4cnc([C@@H]5CCCN5C(=O)[C@@H](NC(=O)OC)C(C)C)[nH]4)cc(F)c3-c3cc4cc(-c5cnc([C@@H]6CCCN6C(=O)C(NC(=O)OC)C6CCOC(C)(C)C6)[nH]5)ccc4n32)s1 (single isomer, unassigned) [Compound 567] | – | 0.011 | – |
| COC(=O)NC(C(=O)N1CCC[C@H]1c1ncc(-c2ccc3c(c2)cc2n3C(c3ccc(C4CC4)s3)Oc3cc(-c4cnc([C@@H]5CCCN5C(=O)[C@@H](NC(=O)OC)C(C)C)[nH]4)cc(F)c3-2)[nH]1)C1CN(C(=O)C2CC2)C1 (single isomer, unassigned) [Compound 268] | 45 | – | – |
| COC(=O)N[C@H](C(=O)N1CCC[C@H]1c1ncc(-c2cc(F)c3c(c2)OC(c2ccc(C4CC4(F)F)s2)n2c-3cc3cc(-c4cnc([C@@H]5CCCN5C(=O)[C@@H](NC(=O)OC)C(C)C)[nH]4)ccc32)[nH]1)C(C)C (single isomer, unassigned) [Compound 117] | – | – | IC50 (HCV replicon 2B; read-out: 2B IC50, replicon 2B): 0.028 nM |
| CCCc1ccc(C2Oc3cc(-c4cnc([C@@H]5CCCN5C(=O)[C@@H](NC(=O)OC)C(C)C)[nH]4)cc(F)c3-c3cc4cc(-c5cnc([C@@H]6C[C@H]7C[C@H]7N6C(=O)[C@@H](NC(=O)OC)C(C)C)[nH]5)ccc4n32)s1 (single isomer, unassigned) [Compound 562] | – | 0.754 | – |
| CCc1ccc(C2Oc3cc(-c4cnc([C@@H]5CCCN5C(=O)C(NC(=O)OC)C5CCOC(C)(C)C5)[nH]4)cc(F)c3-c3cc4cc(-c5cnc([C@@H]6CCCN6C(=O)[C@@H](NC(=O)OC)C(C)C)[nH]5)ccc4n32)s1 (single isomer, unassigned) [Compound 161] | 58.6 | – | – |
| COC(=O)NC(C(=O)N1CCC[C@H]1c1ncc(-c2ccc3c(c2)cc2n3C(c3ccc(C(C)C)s3)Oc3cc(-c4cnc([C@@H]5CCCN5C(=O)[C@@H](NC(=O)OC)C(C)C)[nH]4)cc(F)c3-2)[nH]1)C1C[C@@H](C)O[C@@H](C)C1 (single isomer, unassigned) [Compound 233] | 66 | – | – |
| COC(=O)NC(C(=O)N1[C@@H]2C[C@@H]2C[C@H]1c1ncc(-c2ccc3c(c2)cc2n3C(c3ccc(C(F)F)s3)Oc3cc(-c4cnc([C@@H]5CCCN5C(=O)[C@@H](NC(=O)OC)C(C)C)[nH]4)cc(F)c3-2)[nH]1)C1C[C@@H](C)O[C@@H](C)C1 (single isomer, unassigned) [Compound 285] | – | – | IC50 (HCV replicon 2B; read-out: 2B IC50, replicon 2B): 0.79 nM |
| COC(=O)N[C@H](C(=O)N1CCC[C@H]1c1ncc(-c2cc(F)c3c(c2)OC(c2cc4c(s2)C(C)(C)CC4)n2c-3cc3cc(-c4cnc([C@@H]5CCCN5C(=O)[C@@H](NC(=O)OC)C(C)C)[nH]4)ccc32)[nH]1)C(C)C (single isomer, unassigned) [Compound 391] | – | – | IC50 (HCV replicon 1A; Hepatitis C virus, replicon 1A): 3.5 pM |
| CCc1ccc(C2Oc3cc(-c4cnc([C@@H]5CCCN5C(=O)C(NC(=O)OC)C5CCOC(C)(C)C5)[nH]4)cc(F)c3-c3cc4cc(-c5cnc([C@@H]6CCCN6C(=O)C(NC(=O)OC)C6CCOC(C)(C)C6)[nH]5)ccc4n32)s1 (single isomer, unassigned) [Compound 293] | > 1670 | – | – |
| COC(=O)NC(C(=O)N1CCC[C@H]1c1ncc(-c2ccc3c(c2)cc2n3C(c3ccc(C4CC4)s3)Oc3cc(-c4cnc([C@@H]5CCCN5C(=O)[C@@H](NC(=O)OC)C(C)C)[nH]4)cc(C)c3-2)[nH]1)C1CCOC(C)(C)C1 (single isomer, unassigned) [Compound 565] | – | – | IC50 (HCV replicon 2B; [1]): 0.17 nM |
| COC(=O)NC(C(=O)N1CCC[C@H]1c1ncc(-c2ccc3c(c2)cc2n3C(c3cc4c(s3)CCC4)Oc3cc(-c4cnc([C@@H]5CCCN5C(=O)[C@@H](NC(=O)OC)C(C)C)[nH]4)cc(F)c3-2)[nH]1)C1C[C@@H](C)O[C@@H](C)C1 (single isomer, unassigned) [Compound 204] | – | – | IC50 (HCV replicon 2B; Hepatitis C virus, read-out: 2B IC50 (nM), replicon 2B): 0.26 nM |
| C=C(C)C1Oc2cc(-c3cnc([C@@H]4CCCN4C(=O)[C@@H](N)C(C)C)[nH]3)cc(F)c2-c2cc3cc(-c4cnc([C@@H]5C[C@H]6C[C@H]6N5C(C)=O)[nH]4)ccc3n21 (single isomer, unassigned) [Compound 571] | – | 0.087 | – |
| CCCc1ccc(C2Oc3cc(-c4cnc([C@@H]5CCCN5C(=O)[C@@H](NC(=O)OC)C(C)C)[nH]4)cc(F)c3-c3cc4cc(-c5cnc([C@@H]6C[C@H]7C[C@H]7N6C(=O)[C@@H](NC(=O)OC)C(C)C)[nH]5)ccc4n32)s1 (single isomer, unassigned) [Compound 561] | – | 0.23 | – |
| C=C(C)C1Oc2cc(-c3cnc([C@@H]4CCCN4C(=O)[C@@H](N)C(C)C)[nH]3)cc(F)c2-c2cc3cc(-c4cnc([C@@H]5C[C@H]6C[C@H]6N5C(C)=O)[nH]4)ccc3n21 (single isomer, unassigned) [Compound 572] | – | 0.031 | – |
| COC(=O)NC(C(=O)N1CCC[C@H]1c1ncc(-c2cc(F)c3c(c2)OC(c2ccc(C4CC4)s2)n2c-3cc3cc(-c4cnc([C@@H]5CCCN5C(=O)C(NC(=O)OC)C5C[C@@H](C)O[C@@H](C)C5)[nH]4)ccc32)[nH]1)C1C[C@@H](C)O[C@@H](C)C1 (single isomer, unassigned) [Compound 302] | > 13000 | – | – |
| COC(=O)NC(C(=O)N1CCC[C@H]1c1ncc(-c2ccc3c(c2)cc2n3C(c3ccc(C4CC4)s3)Oc3cc(-c4cnc([C@@H]5CCCN5C(=O)[C@@H](NC(=O)OC)C(C)C)[nH]4)cc(F)c3-2)[nH]1)C1CN(C(=O)C2CC2)C1 (single isomer, unassigned) [Compound 270] | 620 | – | – |
| CCCc1ccc(C2Oc3cc(-c4cnc([C@@H]5CCCN5C(=O)[C@@H](NC(=O)OC)C(C)C)[nH]4)cc(F)c3-c3cc4cc(-c5cnc([C@@H]6CCCN6C(=O)C(NC(=O)OC)C6CCOC(C)(C)C6)[nH]5)ccc4n32)s1 (single isomer, unassigned) [Compound 566] | – | 0.31 | – |
| CCc1ccc(C2Oc3cc(-c4cnc([C@@H]5CCCN5C(=O)C(NC(=O)OC)C5CCOC(C)(C)C5)[nH]4)cc(F)c3-c3cc4cc(-c5cnc([C@@H]6CCCN6C(=O)C(NC(=O)OC)C6CCOC(C)(C)C6)[nH]5)ccc4n32)s1 (single isomer, unassigned) [Compound 294] | > 1670 | – | – |
| CCc1ccc(C2Oc3cc(-c4cnc([C@@H]5CCCN5C(=O)C(NC(=O)OC)C5C[C@@H](C)O[C@@H](C)C5)[nH]4)cc(F)c3-c3cc4cc(-c5cnc([C@@H]6CCCN6C(=O)[C@@H](NC(=O)OC)C(C)C)[nH]5)ccc4n32)s1 (single isomer, unassigned) [Compound 155] | 167 | – | – |
| COC(=O)NC(C(=O)N1CCC[C@H]1c1ncc(-c2ccc3c(c2)cc2n3C(c3ccc(C4CC4)s3)Oc3cc(-c4cnc([C@@H]5CCCN5C(=O)[C@@H](NC(=O)OC)C(C)C)[nH]4)cc(F)c3-2)[nH]1)C1CC2CCC(C1)O2 (single isomer, unassigned) [Compound 180] | – | – | IC50 (HCV replicon 1A; Hepatitis C virus, replicon 1A): 2.5 pM |
| COC(=O)N[C@H](C(=O)N1CCC[C@H]1c1ncc(-c2cc(F)c3c(c2)OC(c2ccc(C4CC4(F)F)s2)n2c-3cc3cc(-c4cnc([C@@H]5CCCN5C(=O)[C@@H](NC(=O)OC)C(C)C)[nH]4)ccc32)[nH]1)C(C)C (single isomer, unassigned) [Compound 116] | – | – | IC50 (HCV replicon 2B; read-out: 2B IC50, replicon 2B): 1.85 nM |
